Where a name gives a salt, the structure may show the parent alone.
Key:
human V2 receptor = target: T1, human V2 receptor (Homo sapiens, UniProt P30518); assay: Cellular in vitro assay for determining the vasopressin receptor activity (aequorin luminescence); format: cell-based; settings: CHO cell line transfected with the human V2 receptor (and Gα16); agonist [Arg8]-vasopressin; read-out: IC50 hV2
T1 construct: expressed in transfected cells; host or cells: CHO K1 (constitutively expressing modified aequorin; co-transfected with promiscuous G-alpha-16)
T1 sequence (P30518 whole entry): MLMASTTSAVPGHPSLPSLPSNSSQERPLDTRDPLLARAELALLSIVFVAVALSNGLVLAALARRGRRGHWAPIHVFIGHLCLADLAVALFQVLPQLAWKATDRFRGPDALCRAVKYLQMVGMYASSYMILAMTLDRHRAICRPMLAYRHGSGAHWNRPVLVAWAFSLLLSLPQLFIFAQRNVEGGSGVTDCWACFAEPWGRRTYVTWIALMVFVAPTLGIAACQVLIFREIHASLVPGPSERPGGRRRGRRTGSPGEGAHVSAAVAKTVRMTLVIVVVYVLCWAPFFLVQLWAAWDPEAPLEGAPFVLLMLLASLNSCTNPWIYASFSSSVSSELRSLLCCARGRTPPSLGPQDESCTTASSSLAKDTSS
Excerpt: (§1) B-1. Cellular In Vitro Assay for Determining the Vasopressin Receptor Activity
(§2) The identification of agonists and antagonists of the V1a and V2 vasopressin receptors from humans and rats and also the quantification of the activity of the substances described here took place using recombinant cell lines. These cells derive originally from a hamster ovary epithelial cell (Chinese Hamster Ovary, CHO K1, ATCC: American Type Culture Collection, Manassas, Va. 20108, USA). The test cell lines constitutively express a modified form of the calcium-sensitive photoprotein aequorin, which, after reconstitution with the cofactor coelenterazine, emits light when there are increases in the free calcium concentration (Rizzuto R., Simpson A. W., Brini M., Pozzan T.; Nature 358 (1992) 325-327). In addition, the cells are stably transfected with the human or rat V1a or V2 receptors. In the case of the Gs-coupling V2 receptors, the cells are stably transfected with a further gene, which codes for the promiscuous Gα16 protein (Amatruda T. T., Steele D. A., Slepak V. Z., Simon M. I., Proc. Nat. Acad. Sci. USA 88 (1991), 5587-5591), either independently or as a fusion gene. The resulting vasopressin receptor test cells react to stimulation of the recombinantly expressed vasopressin receptors by intracellular release of calcium ions, which can be quantified by the resulting aequorin luminescence using a suitable luminometer (Milligan G., Marshall F., Rees S., Trends in Pharmaco. Sci. 17 (1996) 235-237).
(§3) On the day before the assay, the cells are plated out in culture medium (DMEM, 10% FCS, 2 mM glutamine, 10 mM HEPES) in 384-well microtiter plates and kept in a cell incubator (96% humidity, 5% v/v carbon dioxide, 37° C.). On the day of the assay, the culture medium is replaced by a Tyrode solution (140 mM sodium chloride, 5 mM potassium chloride, 1 mM magnesium chloride, 2 mM calcium chloride, 20 mM glucose, 20 mM HEPES), which additionally contains the cofactor coelenterazine (50 μM), and the microtiter plate is then incubated for a further 3-4 hours. The test substances in various concentrations are placed for 10 to 20 minutes in the wells of the microtiter plate before the agonist [Arg8]-vasopressin is added, and the resulting light signal is measured immediately in the luminometer. The IC50 values are calculated using the GraphPad PRISM computer program (Version 3.02).
(§4) The table below lists representative IC50 values for the compounds of the invention on the cell line transfected with the human V1a or V2 receptor: […]

human V1a receptor = target: T2, human V1a receptor (Homo sapiens, UniProt P37288); assay: as above; format: cell-based; settings: CHO cell line transfected with the human V1a receptor; agonist [Arg8]-vasopressin; read-out: IC50 hV1a
T2 construct: expressed in transfected cells; host or cells: CHO K1 (constitutively expressing modified aequorin)
T2 sequence (P37288 whole entry): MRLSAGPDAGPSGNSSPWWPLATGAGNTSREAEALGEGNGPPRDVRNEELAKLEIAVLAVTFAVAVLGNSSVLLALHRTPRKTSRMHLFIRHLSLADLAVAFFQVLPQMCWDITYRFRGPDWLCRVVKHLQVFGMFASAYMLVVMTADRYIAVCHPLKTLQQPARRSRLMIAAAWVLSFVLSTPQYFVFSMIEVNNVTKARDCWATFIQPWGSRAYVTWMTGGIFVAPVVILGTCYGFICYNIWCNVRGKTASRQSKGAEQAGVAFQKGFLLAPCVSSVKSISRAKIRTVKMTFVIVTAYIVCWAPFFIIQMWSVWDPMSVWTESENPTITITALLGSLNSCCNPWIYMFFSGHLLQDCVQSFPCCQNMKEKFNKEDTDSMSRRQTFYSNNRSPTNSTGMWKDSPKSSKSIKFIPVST
Excerpt: as §1, §2, §3, §4

| SMILES | IC50 (human V2 receptor) | IC50 (human V1a receptor) |
| --- | --- | --- |
| NCC(NC(=O)Cn1nc(-c2ccc(Cl)cc2)n(C[C@H](O)C(F)(F)F)c1=O)c1cccc(C(F)(F)F)c1 (mixture of isomers) [Example 10, N-{2-Amino-1-[3-(trifluoromethyl)phenyl]ethyl}-2-{3-(4-chlorophenyl)-5-oxo-4-[(2S)-3,3,3-trifluoro-2-hydroxypropyl]-4,5-dihydro-1H-1,2,4-triazol-1-yl}acetamide hydrochloride (diastereomer mixture)] | 6.3 nM | 10.4 nM |
| CC(=O)NCC(NC(=O)Cn1nc(-c2ccc(Cl)cc2)n(C[C@H](O)C(F)(F)F)c1=O)c1cccc(C(F)(F)F)c1 (mixture of isomers) [Example 20, N-{2-(Acetylamino)-1-[3-(trifluoromethyl)phenyl]ethyl}-2-{3-(4-chlorophenyl)-5-oxo-4-[(2S)-3,3,3-trifluoro-2-hydroxypropyl]-4,5-dihydro-1H-1,2,4-triazol-1-yl}acetamide (diastereomer mixture)] | 6.3 nM | 1.5 nM |
| O=C(Cn1nc(-c2ccc(Cl)cc2)n(C[C@H](O)C(F)(F)F)c1=O)NC(c1cccc(C(F)(F)F)c1)C(O)C(F)(F)F (mixture of isomers) [Example 78, 2-{3-(4-Chlorophenyl)-5-oxo-4-[(2S)-3,3,3-trifluoro-2-hydroxypropyl]-4,5-dihydro-1H-1,2,4-triazol-1-yl}-N-{3,3,3-trifluoro-2-hydroxy-1-[3-(trifluoromethyl)phenyl]propyl}acetamide] | 30.4 nM | 21.1 nM |
| COc1cccc(C(CCO)NC(=O)Cn2nc(-c3ccc(Cl)cc3)n(C3CC3)c2=O)c1 (racemic) [Example 89, 2-[3-(4-Chlorophenyl)-4-cyclopropyl-5-oxo-4,5-dihydro-1H-1,2,4-triazol-1-yl]-N-[3-hydroxy-1-(3-methoxyphenyl)propyl]acetamide] | 290 nM | 2880 nM |
| O=C(Cn1nc(-c2ccc(Cl)cc2)n(C2CC2)c1=O)NC(CO)c1cccc(C(F)(F)F)c1 (racemic) [Example 96, 2-[3-(4-Chlorophenyl)-4-cyclopropyl-5-oxo-4,5-dihydro-1H-1,2,4-triazol-1-yl]-N-{2-hydroxy-1-[3-(trifluoromethyl)phenyl]ethyl}acetamide] | 40.2 nM | 71.3 nM |
| NC(=O)OCC(NC(=O)Cn1nc(-c2ccc(Cl)cc2)n(C[C@H](O)C(F)(F)F)c1=O)c1ccccc1C(F)(F)F (single isomer, unassigned) [Example 51] | 8.5 nM | 1 nM |
| NC(=O)OCC(NC(=O)Cn1nc(-c2ccc(Cl)cc2)n(/C=C/C(F)(F)F)c1=O)c1cccc(C(F)(F)F)c1 (single isomer, unassigned) [Example 65, 2-[({3-(4-Chlorophenyl)-5-oxo-4-[(1E)-3,3,3-trifluoroprop-1-en-1-yl]-4,5-dihydro-1H-1,2,4-triazol-1-yl}acetyl)amino]-2-[3-(trifluoromethyl)phenyl]ethyl carbamate] | 16.8 nM | 16.8 nM |
| Cc1ccccc1C(CCO)NC(=O)Cn1nc(-c2ccc(Cl)cc2)n(C[C@H](O)C(F)(F)F)c1=O (single isomer, unassigned) [Example 87] | 5.8 nM | 3.8 nM |
| NC(=O)OCC(NC(=O)Cn1nc(-c2ccc(Cl)cc2)n(CCC(F)(F)F)c1=O)c1cccc(C(F)(F)F)c1 (single isomer, unassigned) [Example 112, 2-({[3-(4-Chlorophenyl)-5-oxo-4-(3,3,3-trifluoropropyl)-4,5-dihydro-1H-1,2,4-triazol-1-yl]acetyl}amino)-2-[3-(trifluoromethyl)phenyl]ethyl carbamate] | 6 nM | 2.4 nM |
| COC(=O)NCC(NC(=O)Cn1nc(-c2ccc(Cl)cc2)n(CCC(F)(F)F)c1=O)c1cccc(Cl)c1Cl (single isomer, unassigned) [Example 115, Methyl [2-({[3-(4-chlorophenyl)-5-oxo-4-(3,3,3-trifluoropropyl)-4,5-dihydro-1H-1,2,4-triazol-1-yl]acetyl}amino)-2-(2,3-dichlorophenyl)ethyl]carbamate] | 7.6 nM | 3.5 nM |
| CS(=O)(=O)CC(NC(=O)Cn1nc(-c2ccc(Cl)cc2)n(C[C@H](O)C(F)(F)F)c1=O)c1ccccc1C(F)(F)F (single isomer, unassigned) [Example 136] | 24 nM | 3.9 nM |
| CN(C)S(=O)(=O)CC(NC(=O)Cn1nc(-c2ccc(Cl)cc2)n(C[C@H](O)C(F)(F)F)c1=O)c1cccc(C(F)(F)F)c1 (single isomer, unassigned) [Example 141] | 4.8 nM | 36 nM |
| NC(=O)OCC(NC(=O)Cn1nc(-c2ccc(Cl)cc2)n(CCC(F)(F)F)c1=O)c1ccccc1C(F)(F)F (single isomer, unassigned) [Example 144, 2-({[3-(4-Chlorophenyl)-5-oxo-4-(3,3,3-trifluoropropyl)-4,5-dihydro-1H-1,2,4-triazol-1-yl]acetyl}amino)-2-[2-(trifluoromethyl)phenyl]ethyl carbamate] | 13.9 nM | 1.4 nM |
| O=C(Cn1nc(-c2ccc(Cl)cc2)n(C[C@H](O)C(F)(F)F)c1=O)NC(CN1CCOC1=O)c1cccc(C(F)(F)F)c1 (single isomer, unassigned) [Example 149] | 15 nM | 2 nM |
| O=C(Cn1nc(-c2ccc(Cl)cc2)n(C[C@H](O)C(F)(F)F)c1=O)NC(CN1CCNC1=O)c1cccc(C(F)(F)F)c1 (single isomer, unassigned) [Example 152] | 7.1 nM | 2.2 nM |
| CSCC(NC(=O)Cn1nc(-c2ccc(Cl)cc2)n(C[C@H](O)C(F)(F)F)c1=O)c1ccccc1C(F)(F)F (single isomer, unassigned) [Example 156] | 10 nM | 1.9 nM |
| NC(=O)OCC(NC(=O)Cn1nc(-c2ccc(Cl)cc2)n(Cc2ccccc2F)c1=O)c1ccccc1C(F)(F)F (single isomer, unassigned) [Example 191, 2-({[3-(4-Chlorophenyl)-4-(2-fluorobenzyl)-5-oxo-4,5-dihydro-1H-1,2,4-triazol-1-yl]acetyl}amino)-2-[2-(trifluoromethyl)phenyl]ethyl carbamate] | 24.8 nM | 2.3 nM |

Molecules with a lower IC50 (human V2 receptor), results first:

| IC50 (human V2 receptor) | IC50 (human V1a receptor) | SMILES |
| --- | --- | --- |
| 4.5 nM | 0.5 nM | NC(=O)NCC(NC(=O)Cn1nc(-c2ccc(Cl)cc2)n(C[C@H](O)C(F)(F)F)c1=O)c1ccccc1C(F)(F)F (single isomer, unassigned) [Example 60] |
| 4.4 nM | 5.2 nM | NC(=O)OCC(NC(=O)Cn1nc(-c2ccc(Cl)cc2)n(C[C@H](O)C(F)(F)F)c1=O)c1cccc(C(F)(F)F)c1 (single isomer, unassigned) [Example 48] |
| 4.4 nM | 2.7 nM | NC(=O)OCC(NC(=O)Cn1nc(-c2ccc(Cl)cc2)n(C[C@H](O)C(F)(F)F)c1=O)c1cccc(Cl)c1Cl (single isomer, unassigned) [Example 203] |
| 2.2 nM | 2.9 nM | NC(=O)NCC(NC(=O)Cn1nc(-c2ccc(Cl)cc2)n(C[C@H](O)C(F)(F)F)c1=O)c1cccc(C(F)(F)F)c1 (single isomer, unassigned) [Example 57] |
| 1.8 nM | 1.8 nM | CS(=O)(=O)NCC(NC(=O)Cn1nc(-c2ccc(Cl)cc2)n(C[C@H](O)C(F)(F)F)c1=O)c1ccccc1Cl (single isomer, unassigned) [Example 126] |
| 1.6 nM | 10.8 nM | NC(=O)OCCC(NC(=O)Cn1nc(-c2ccc(Cl)cc2)n(C[C@H](O)C(F)(F)F)c1=O)c1cccc(Cl)c1Cl (single isomer, unassigned) [Example 73] |
| 1.4 nM | 0.9 nM | NC(=O)NCC(NC(=O)Cn1nc(-c2ccc(Cl)cc2)n(CCC(F)(F)F)c1=O)c1cccc(Cl)c1Cl (single isomer, unassigned) [Example 121, N-[2-(Carbamoylamino)-1-(2,3-dichlorophenyl)ethyl]-2-[3-(4-chlorophenyl)-5-oxo-4-(3,3,3-trifluoropropyl)-4,5-dihydro-1H-1,2,4-triazol-1-yl]acetamide] |
| 1 nM | 3.6 nM | NC(=O)NCC(NC(=O)Cn1nc(-c2ccc(Cl)cc2)n(C[C@H](O)C(F)(F)F)c1=O)c1cccc(Cl)c1Cl (single isomer, unassigned) [Example 62] |
